Patent US8530465B2, “1, 2-disubstituted amido-anthraquinone derivatives, preparation method and application thereof” (National Defense Medical Center, priority 2010, dated 2013)

Experiments:
[1] = tested on: SK-MEL-2; assay: NCI drug screen, SK-MEL-2; assay type: cell-based, human; conditions: SK-MEL-2 (Melanoma); 1.00E−5 Molar
Protocol: (§1) In brief, cellular protein levels were determined after 48 hours of drug exposure by sulforhodamine B colorimetry. Through the use of a time 0 cell control, the cell growth can be determined for each cell line thus allowing calculations of the 50% growth inhibitory concentration (GI50), the total growth inhibition (TGI), and the 50% lethal concentration (LC50). Comparison to plates not exposed to drug permits determination of concentration and times of exposure conferring 50% net growth inhibition (GI50), TGI, and 50% cell kill (LC50).
(§2) The screening system in United State National Cancer Institute (NCI) is consisted of 60 kinds of different human cancer cells, which can be used to assay the growth-inhibiting ability or cell toxicity of a compound against various cancer and tumor at a certain concentration.

[2] = tested on: COLO 205; assay: NCI drug screen, COLO 205; assay type: cell-based, human; conditions: COLO 205 (Colon Cancer); 1.00E−5 Molar
Protocol: as §1, §2

[3] = tested on: HCC-2998; assay: NCI drug screen, HCC-2998; assay type: cell-based, human; conditions: HCC-2998 (Colon Cancer); 1.00E−5 Molar
Protocol: as §1, §2

[4] = tested on: KM12; assay: NCI drug screen, KM12; assay type: cell-based, human; conditions: KM12 (Colon Cancer); 1.00E−5 Molar
Protocol: as §1, §2

[5] = tested on: MOLT-4; assay: NCI drug screen, MOLT-4; assay type: cell-based, human; conditions: MOLT-4 (Leukemia); 1.00E−5 Molar
Protocol: as §1, §2

[6] = tested on: IGROV1; assay: NCI drug screen, IGROV1; assay type: cell-based, human; conditions: IGROV1 (Ovarian Cancer); 1.00E−5 Molar
Protocol: as §1, §2

[7] = tested on: SN12C; assay: NCI drug screen, SN12C; assay type: cell-based, human; conditions: SN12C (Renal Cancer); 1.00E−5 Molar
Protocol: as §1, §2

[8] = tested on: HL-60(TB); assay: NCI drug screen, HL-60(TB); assay type: cell-based, human; conditions: HL-60(TB) (Leukemia); 1.00E−5 Molar
Protocol: as §1, §2

[9] = tested on: U251; assay: NCI drug screen, U251; assay type: cell-based, human; conditions: U251 (CNS Cancer); 1.00E−5 Molar
Protocol: as §1, §2

[10] = tested on: BT-549; assay: NCI drug screen, BT-549; assay type: cell-based, human; conditions: BT-549 (Breast Cancer); 1.00E−5 Molar
Protocol: as §1, §2

[11] = tested on: MDA-MB-468; assay: NCI drug screen, MDA-MB-468; assay type: cell-based, human; conditions: MDA-MB-468 (Breast Cancer); 1.00E−5 Molar
Protocol: as §1, §2

[12] = tested on: 60 kinds of different human cancer cells; assay: NCI in vitro 60-cell Drug Screen, whole panel; assay type: cell-based
Protocol: as §1
From the data analysis it follows that approximately 95% of the actives (potent anticancer drugs) from the 60 cell line screen can be identified. By these criteria, five compounds (each with its certification number, refer to FIG. 4) of the invention were reported that having anticancer activity.
as §2

[13] = tested on: HCT-116; assay: NCI drug screen, HCT-116; assay type: cell-based, human; conditions: HCT-116 (Colon Cancer); 1.00E−5 Molar
Protocol: as §1, §2

[14] = tested on: SK-OV-3; assay: NCI drug screen, SK-OV-3; assay type: cell-based, human; conditions: SK-OV-3 (Ovarian Cancer); 1.00E−5 Molar
Protocol: as §1, §2

[15] = tested on: CAKI-1; assay: NCI drug screen, CAKI-1; assay type: cell-based, human; conditions: CAKI-1 (Renal Cancer); 1.00E−5 Molar
Protocol: as §1, §2

[16] = tested on: SF-539; assay: NCI drug screen, SF-539; assay type: cell-based, human; conditions: SF-539 (CNS Cancer); 1.00E−5 Molar
Protocol: as §1, §2

[17] = tested on: A549/ATCC; assay: NCI drug screen, A549/ATCC; assay type: cell-based, human; conditions: A549/ATCC (Non-Small Cell Lung Cancer); 1.00E−5 Molar
Protocol: as §1, §2

[18] = tested on: 786-0; assay: NCI drug screen, 786-0; assay type: cell-based, human; conditions: 786-0 (Renal Cancer); 1.00E−5 Molar
Protocol: as §1, §2

[19] = tested on: SF-295; assay: NCI drug screen, SF-295; assay type: cell-based, human; conditions: SF-295 (CNS Cancer); 1.00E−5 Molar
Protocol: as §1, §2

[20] = tested on: UACC-257; assay: NCI drug screen, UACC-257; assay type: cell-based, human; conditions: UACC-257 (Melanoma); 1.00E−5 Molar
Protocol: as §1, §2

[21] = tested on: OVCAR-3; assay: NCI drug screen, OVCAR-3; assay type: cell-based, human; conditions: OVCAR-3 (Ovarian Cancer); 1.00E−5 Molar
Protocol: as §1, §2

[22] = tested on: CCRF-CEM; assay: NCI drug screen, CCRF-CEM; assay type: cell-based, human; conditions: CCRF-CEM (Leukemia); 1.00E−5 Molar
Protocol: as §1, §2

[23] = tested on: UACC-62; assay: NCI drug screen, UACC-62; assay type: cell-based, human; conditions: UACC-62 (Melanoma); 1.00E−5 Molar
Protocol: as §1, §2

[24] = tested on: SW-620; assay: NCI drug screen, SW-620; assay type: cell-based, human; conditions: SW-620 (Colon Cancer); 1.00E−5 Molar
Protocol: as §1, §2

[25] = tested on: HOP-62; assay: NCI drug screen, HOP-62; assay type: cell-based, human; conditions: HOP-62 (Non-Small Cell Lung Cancer); 1.00E−5 Molar
Protocol: as §1, §2

[26] = tested on: EKVX; assay: NCI drug screen, EKVX; assay type: cell-based, human; conditions: EKVX (Non-Small Cell Lung Cancer); 1.00E−5 Molar
Protocol: as §1, §2

[27] = tested on: UO-31; assay: NCI drug screen, UO-31; assay type: cell-based, human; conditions: UO-31 (Renal Cancer); 1.00E−5 Molar
Protocol: as §1, §2

[28] = tested on: M14; assay: NCI drug screen, M14; assay type: cell-based, human; conditions: M14 (Melanoma); 1.00E−5 Molar
Protocol: as §1, §2

[29] = tested on: TK-10; assay: NCI drug screen, TK-10; assay type: cell-based, human; conditions: TK-10 (Renal Cancer); 1.00E−5 Molar
Protocol: as §1, §2

[30] = MTT assay, PhTERT-SEAP (H1299); assay type: cell-based, human; conditions: human, H1299 cells carrying the PhTERT-SEAP reporter, PhTERT-SEAP (H1299)
Method in brief: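 Cultured cells received MTT for 4 h at 37 °C, then lysis buffer overnight at 37 °C. Optical density was read at 550 nm.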

## Cc1ccc(C(=O)Nc2c(NC(=O)CN3CCN(C)CC3)ccc3c2C(=O)c2ccccc2C3=O)cc1 [CC-43, 1-(4-methylbenzamido)-2-[2-(4-methylpiperazino)acetylamino]-anthraquinone]
[1]
  Growth Percent: 123.64%
[2]
  Growth Percent: 2.29%
[3]
  Growth Percent: 28.97%
[4]
  Growth Percent: 44.05%
[5]
  Growth Percent: 26.04%
[6]
  Growth Percent: 112.20%
[7]
  Growth Percent: 63.31%
[8]
  Growth Percent: −8.54%
[9]
  Growth Percent: 22.38%
[10]
  Growth Percent: 91.88%
[11]
  Growth Percent: 7.43%
[12]; Homo sapiens, 60 cell, NCI screen, FIG. 6, cell line not stated, read-out: 50% net growth inhibition (GI50)
  GI50: 130 nM
[12]; NCI's screen, 1.00E−5 Molar
  growth-inhibiting effect against cancer cells, by cancer type: could inhibit the cancer cell growth of leukemia, melanoma, and ovarian cancer
[12]; mean over tested cell lines, 1.00E−5 Molar
  Growth Percent, Mean: 46.71%
[13]
  Growth Percent: 8.37%
[14]
  Growth Percent: 108.91%
[15]
  Growth Percent: 69.76%
[16]
  Growth Percent: 62.68%
[17]
  Growth Percent: 83.89%
[18]
  Growth Percent: 11.90%
[19]
  Growth Percent: 89.86%
[20]
  Growth Percent: −50.95%
[21]
  Growth Percent: −6.15%
[22]
  Growth Percent: 61.06%
[23]
  Growth Percent: −20.65%
[24]
  Growth Percent: 39.17%
[25]
  Growth Percent: 75.21%
[26]
  Growth Percent: 78.07%
[27]
  Growth Percent: 70.66%
[28]
  Growth Percent: −60.04%
[29]
  Growth Percent: 101.93%
[30]; Conc. 1 μM, read-out: Relative MTT viability (%)
  viability at 1 μM: 78.8 ± 3.47%
[30]; Conc. 10 μM, read-out: Relative MTT viability (%) (converted)
  viability at 10 μM: 29.5%
[30]; Conc. 100 μM, read-out: Relative MTT viability (%) (converted)
  viability at 100 μM: 8.11%
